Measured values: US9018174B2, “Mouse model and treatment of hereditary inclusion body myopathy” (HIBM Research Group, Inc., priority 2008, dated 2015)
Numbering of substitutions follows the chain as printed. Values joined by “and” are separate entries in the source; they are usually repeats but may differ in a detail not shown here. Equal values may be shown once. “Also recorded” adds a separate entry of the source.

Experiments:
cultured cells = conditions: SiaLev or SiaNAz as downstream product; cited from earlier work
GNE-M712T knock-in mice [1] = experiment: Rescue of GNE-M712T knock-in mice by ManNAc feeding (survival of homozygous pups); type: in vivo, mouse
Experimental: GNE-M712T mice. GNE-M712T knock-in mice were generated by targeting the M712T (ATG>ACG) mutation exon 12 of the murine GNE gene (Uae1, Gne, GenBank NM_015828). The mutant mice were maintained in the C57BL/6J background. Animals were housed in ventilated cages in a temperature- and light-controlled environment (22° C., 30-70% humidity, 12-hour light/12-hour dark cycle) and were fed irradiated chow (Prolab 5P75 Isopro 3000; PMI Nutrition International) and water ad libitum. All euthanasia was performed with by CO2 followed by cervical dislocations. For Mendelian distribution studies, four pregnant mice E17-19 were euthanized and embryos were retrieved by cesarean section and euthanized by decapitation. All mouse procedures were performed in accordance with protocol G04-3 approved by the Institutional Animal […] and Use Committee of the National Human Genome Research Institute, National Institutes of Health Institutional Review Board.
(§1) ManNAc administration. Breeding pairs of 6-week-old +/− mice were divided into three groups. Group I consisted of 9 +/− breeding pairs who were administered untreated sterilized tap water. Group II consisted of one breeding pair of +/+ mice (wild-type control) and 6 +/− breeding pairs who were administered 1 mg/ml ManNAc (Sigma) supplemented water. Group III consisted of one +/+ breeding pair and 7 +/− breeding pairs who were administered 5 mg/ml ManNAc supplemented water. Water was changed twice weekly. Nursing females continued to be supplied with ManNAc. All mice were weaned from ManNAc at 21 days. Selected whole litters were sacrificed at age P2 or P6 for histological, genetic, biochemical or ultrastructural analysis.
Statistical analysis. Differences in genotype distribution (+/+: +/−-−/−) between an untreated control group and ManNAc treated group were tested by a two-tailed Fisher's exact test. To this end a 2×3 table was generated.

[2] = target: T1, UDP-GlcNAC 2-epimerase (GNE) (Mus musculus, UniProt Q91WG8, M712T); experiment: GNE/MNK epimerase enzymatic assay on tissue after ManNAc feeding; type: in vivo; conditions: -/- mice, skeletal muscle, age P2, ManNAc treatment, n=7; untreated -/- 19%
T1 construct: Mouse kidney and skeletal muscle (hindlimb quadriceps) tissues were homogenized; from tissue; host or cells: skeletal muscle and kidney of GNE-M712T knock-in mice (C57BL/6J), age P2
T1 sequence (Q91WG8 1-722 M712T): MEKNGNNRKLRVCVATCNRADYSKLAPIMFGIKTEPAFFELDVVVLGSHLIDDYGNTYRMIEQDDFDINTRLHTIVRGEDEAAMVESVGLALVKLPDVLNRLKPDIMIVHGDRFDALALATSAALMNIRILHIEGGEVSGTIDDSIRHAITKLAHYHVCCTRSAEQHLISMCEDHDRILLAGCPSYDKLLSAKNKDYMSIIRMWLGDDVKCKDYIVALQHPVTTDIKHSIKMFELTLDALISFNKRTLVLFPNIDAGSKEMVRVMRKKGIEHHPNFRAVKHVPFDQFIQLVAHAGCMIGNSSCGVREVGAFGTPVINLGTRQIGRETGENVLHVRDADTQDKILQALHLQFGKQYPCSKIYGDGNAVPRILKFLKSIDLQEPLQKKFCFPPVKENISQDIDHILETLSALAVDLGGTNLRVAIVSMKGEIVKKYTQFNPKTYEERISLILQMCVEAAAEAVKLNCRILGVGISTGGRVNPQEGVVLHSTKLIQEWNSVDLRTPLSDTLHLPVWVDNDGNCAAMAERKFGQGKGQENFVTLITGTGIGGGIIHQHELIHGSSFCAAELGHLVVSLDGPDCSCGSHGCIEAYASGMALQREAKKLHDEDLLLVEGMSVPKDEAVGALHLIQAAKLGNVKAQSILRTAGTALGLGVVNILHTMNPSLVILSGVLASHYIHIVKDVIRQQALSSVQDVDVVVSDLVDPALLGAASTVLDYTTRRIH
Experimental: as §1
(§2) GNE/MNK enzymatic assays. Mouse kidney and skeletal muscle (hindlimb quadriceps) tissues were homogenized and subjected to the GNE/MNK epimerase enzymatic assay as described^11,44. This assay is based on incubation with radiolabeled substrate (UDP-[^3H]GlcNAc; American Radiolabeled Chemicals), and detection of radiolabeled product ([^3H]ManNAc) upon separation of oligosaccharides by high pH anion-exchange chromatography with pulsed amperometric detection (Dionex).

[3] = target: T2, UDP-GlcNAC 2-epimerase (GNE) (Mus musculus, UniProt Q91WG8); experiment: as above; type: in vivo; conditions: +/+ mice, skeletal muscle, age P2, ManNAc treatment, n=3
T2 construct: Mouse kidney and skeletal muscle (hindlimb quadriceps) tissues were homogenized; from tissue; host or cells: skeletal muscle and kidney of GNE-M712T knock-in mice (C57BL/6J), age P2
T2 sequence (Q91WG8 1-722): T1 sequence (Q91WG8 1-722 M712T) with T712M
Experimental: as §1, §2

[4] = tested on: GNE-deficient mouse embryonic stem cells; conditions: growth medium supplemented with ManNAc; cited from earlier work
podocalyxin = experiment: Immunoblot of podocalyxin sialylation in kidney extracts after ManNAc feeding; type: in vivo, mouse; conditions: -/- kidneys
From the text: (§3) Antibodies. A rabbit polyclonal antibody was custom prepared against a GNE/MNK peptide comprising amino acids 588-607: […] (SEQ ID NO:24), coupled to keyhole limpet hemocyanine (KLH) and affinity-purified against the corresponding antigenic peptide (Covance). Other primary antibodies were commercially obtained: dystrophin (ab15277, AbCam), α-dystroglycan (IIH6, Upstate Biotechnology), laminin (L9393, Sigma-Aldrich), podocalyxin (PODX15-A, Alpha Diagnostic International), PSA-NCAM (MAB5324, Chemicon), and β-actin (AAN01, Cytoskeleton).
(§4) Western blotting. Mouse tissues (age P2) were extracted, homogenized in CelLytic buffer, consisting of a mild detergent, bicine buffer and 150 mM NaC (CelLytic) supplemented with protease inhibitors (Complete Minia, Roche). The lysates were sonicated and cleared by centrifugation (1000 g for 10 min), and the resulting supernatants were assayed for protein concentration (BCA protein assay, Pierce). For the neuraminidase enzymatic treatments, protein homogenates (25 μg) were incubated with 1 mU/μg of Neuraminidase (N-6514, Sigma) for 30 min at 37° C. Equal amounts of protein (25-50 μg) were electrophoresed on 4-12% Tris-Glycine gels (Novex, Invitrogen), and electroblotted onto 0.45 μm Hybond ECL nitrocellulose membranes (Amersham Pharmacia Biotech). […]

GNE/MNK protein = target: T3, GNE/MNK protein (Mus musculus, UniProt Q91WG8, M712T); experiment: Immunoblot with anti-GNE/MNK antibodies of muscle and kidney extracts after ManNAc feeding; type: in vivo; conditions: ManNAc treated, referenced to β-actin, untreated -/- 78% decreased
T3 construct: Mouse kidney and skeletal muscle (hindlimb quadriceps) tissues were homogenized; from tissue; host or cells: skeletal muscle and kidney of GNE-M712T knock-in mice (C57BL/6J), age P2
T3 sequence (Q91WG8 1-722 M712T): T1 sequence (Q91WG8 1-722 M712T)
From the text: as §3, §4

GNE-M712T knock-in mice [5] = experiment: Tissue histology and electron microscopy of ManNAc treated -/- mice at P6; type: in vivo, mouse; conditions: age P6
Experimental: Mouse Histology. Mouse tissues were collected, formalin-fixed and paraffin-embedded. Tissue sections (5 μm) were prepared and stained with hematoxylin and eosin following standard procedures (American Histolabs) or subjected to immunohostochemistry with a variety of primary antibodies. Formalin fixed tissues were deparafinized in Histoclear II (National Diagnostics), […] in a series of ethanol solutions. Antigen retrieval was performed for sections to be stained with the antibodies GNE/MNK (5 min boiling in citric acid based solution; Vector Laboratories) and dystrophin (boiling in 1 mM EDTA, according the manufacturer's protocol; AbCam). The sections were blocked (2% BSA, 10% donkey serum and 0.1% Triton X-100 in PBS) and incubated with primary antibodies (GNE/MNK 1:50; laminin 1:25; dystrophin 1:50) overnight at 4° C., followed by the secondary antibody Alexa 488 donkey-anti-rabbit (1:500 in blocking solution) (Invitrogen). The sections were mounted in Vectashield (Vector Laboratories) and viewed and digitally imaged with a Zeiss Axiovert 200M microscope (Carl Zeiss, Microimaging).
Electron Microscopy. […] The grids were viewed with a Philips 410 electron microscope (FEI Company) at 80 kV and images were recorded on Kodak SO-163 film (Kodak). […]

PSA-NCAM = experiment: Immunoblot with PSA-NCAM antibodies of brain tissue after ManNAc feeding; type: in vivo, mouse; conditions: n=14 pre treatment, n=10 post treatment, p=0.08
From the text: as §3, §4

[6] = ManNAc 1 g/kg/day to +/- breeding pairs

Compound	incorporation of sialic acid analogs into cell surface glycoconjugates (cultured cells)	surviving homozygous mice beyond age P3 (GNE-M712T knock-in mice [1]; 1 mg/ml ManNAc in drinking water during matings of +/- mice, 51 offspring)	homozygous pups surviving beyond P3, % of total -/- pups (GNE-M712T knock-in mice [1]; 5 mg ManNAc/ml in drinking water)	number of homozygous pups that survived beyond P3 (GNE-M712T knock-in mice [1]; 5 mg ManNAc/ml in drinking water, out of 97 newborn pups)	homozygous mice that survived past P21 (GNE-M712T knock-in mice [1]; 5 mg ManNAc/ml in drinking water, supplementation ceased at P21)	-/- offspring that survived past P3 (GNE-M712T knock-in mice [1]; [6])	survivors past P3 that lived past weaning age P21 (GNE-M712T knock-in mice [1]; [6])	effect on survival of homozygous pups (GNE-M712T knock-in mice [1]; administration of ManNAc to pregnant mothers)	residual GNE activity in -/- muscle, relative to untreated +/+ set at 100% [2]	GNE activity in +/+ muscle, relative to untreated +/+ set at 100% [3]	sialylation of hyposialylated cells [4]	podocalyxin sialylation status (podocalyxin)	decreased amount of GNE/MNK protein compared to +/+ littermates (GNE/MNK protein)	abnormalities in liver, heart and skeletal muscle tissues (GNE-M712T knock-in mice [5])	kidney histology (GNE-M712T knock-in mice [5])	increased PSA-NCAM signal compared to untreated -/- tissues (PSA-NCAM)
CC(=O)CCC(=O)N[C@@H]1C(O)O[C@H](CO)[C@@H](O)[C@@H]1O (some centres unmarked) [ManLev, N-levulinoylmannosamine]	resulted in incorporation of the downstream sialic acid analogs															
CC(=O)N[C@@H]1C(O)O[C@H](CO)[C@@H](O)[C@@H]1O (some centres unmarked) [ManNAc, N-acetylmannosamine]		did not yield any surviving homozygous mice beyond age P3	44%	11	Two	42%	18%	remarkably salutary effect on survival of homozygous pups	31 (±9) % and 31%	114 (±10) % and ~114%	became resialylated	did not result in a statistically significant increase	41 (±3) %	No abnormalities	mildly to remarkably improved histological features; also recorded: mildly to significantly improved kidney histology	2-28%
[N-]=[N+]=NCC(=O)N[C@@H]1C(O)O[C@H](CO)[C@@H](O)[C@@H]1O (some centres unmarked) [ManNAz, N-azidoacetylmannosamine]	resulted in incorporation of the downstream sialic acid analogs															
